# Measurements as given in US8426447B2, “Spiro-tricyclic ring compounds as beta-secretase modulators and methods of use” (Amgen Inc., priority 2008, dated 2013).
# Key:
# [1] = target: T1, BACE1 (Homo sapiens, UniProt P56817); assay: In Vitro Enzymatic BACE FRET (Fluorescence Resonance Energy Transfer) Assay; assay type: biochemical; conditions: read-out: BACE1 FRET assay
# Procedure, shortened: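 Cleavage of a 50 nM internally quenched peptide substrate is followed by fluorescence after a one-hour reaction in acidic acetate buffer, pH 4.2, terminated by Tris.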
# [2] = target: T1, BACE1; assay: In Vitro BACE Cell-based Assay (HEK cell assay): Aβ40 in conditioned medium of cells stably expressing Amyloid Precursor Protein, sandwich ELISA; conditions: read-out: HEK cell assay
# Procedure, shortened: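 First, APP-stable cells grow 24 h at 37° C., 5% CO2. Next, test compounds are added for 24 h (10 doses, 0.1% DMSO). Finally, medium Aβ40 is determined by pAb40/6E10 sandwich ELISA with Europium TRF, and IC50 is calculated.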
# [3] = in vitro BACE FRET enzyme assay, IC50 class symbols
# [4] = HEK cell-based assay, Aβ40 in conditioned medium, IC50 class symbols
# [5] = Table II, Aβ40, 24 h incubation
# T1 sequence (P56817 46-501, species assumed): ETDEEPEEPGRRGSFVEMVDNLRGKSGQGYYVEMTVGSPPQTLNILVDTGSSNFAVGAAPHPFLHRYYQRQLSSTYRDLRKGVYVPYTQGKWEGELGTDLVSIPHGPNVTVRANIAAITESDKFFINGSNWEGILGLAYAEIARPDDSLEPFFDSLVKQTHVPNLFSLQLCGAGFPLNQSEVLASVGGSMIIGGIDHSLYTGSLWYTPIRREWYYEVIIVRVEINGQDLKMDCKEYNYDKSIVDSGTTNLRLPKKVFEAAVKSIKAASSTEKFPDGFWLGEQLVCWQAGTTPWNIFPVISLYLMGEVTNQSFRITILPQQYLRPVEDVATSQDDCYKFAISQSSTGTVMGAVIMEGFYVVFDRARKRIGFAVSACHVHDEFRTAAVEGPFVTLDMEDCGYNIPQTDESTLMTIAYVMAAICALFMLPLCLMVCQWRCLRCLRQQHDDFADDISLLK
smiles,measurement,setting,value
CC(C)(C)COc1ccc2c(c1)[C@@]1(COC(N)=N1)c1cc(-c3cncs3)ccc1O2 [compound 781],IC50,[1],< 0.1 µM
same,IC50,[2],0.1 to 1 µM
NC1=N[C@@]2(CO1)c1cc(-c3cccnc3F)ccc1Oc1ccc(-c3ccncc3)nc12 [compound 402],IC50,[1]; [3],< 0.1 µM
same,IC50,[2]; [4],< 0.1 µM
NC1=N[C@@]2(CO1)c1cc(-c3cccnc3)ccc1Oc1ncccc12 [compound 594],IC50,"[1]; Table IV, class symbols",> 5 µM
same,IC50,"[2]; Table IV, class symbols",> 5 µM
CC(C)(C)COc1ccc2c(c1)[C@]1(COC(N)=N1)c1cc(-c3cnc4ccccn34)ccc1O2 [compound 975],IC50,[1],0.1 to 1 µM
same,IC50,[2],0.1 to 1 µM
CC(C)(C)COc1ccc2c(c1)[C@]1(COC(N)=N1)c1cc(-c3cccc(S(C)(=O)=O)c3)ccc1O2 [compound 915],IC50,"[1]; Table IV, class symbols",< 0.1 µM
same,IC50,"[2]; Table IV, class symbols",1 to 5 µM
NC1=N[C@]2(CO1)c1cc(-c3cccnc3)ccc1Oc1cnc(Cl)cc12 [compound 953],IC50,[1],0.1 to 1 µM
same,IC50,[2],1 to 5 µM
C[C@H]1OC(N)=N[C@]12c1cc(OCC(C)(C)C)ccc1Oc1ccc(-c3cncnc3)cc12 [126c],IC50,"[1]; Table III, IC50's in uM ranges",0.1 to 1 µM
same,IC50,"[2]; Table III, IC50's in uM ranges",1 to 5 µM
NC1=N[C@@]2(CO1)c1cc(-c3cncnc3)ccc1Oc1ncc(C3=CCOCC3)cc12 [compound 805],IC50,"[1]; Table IV, class symbols",< 0.1 µM
same,IC50,"[2]; Table IV, class symbols",< 0.1 µM
CC1(C)CN(c2cc(F)c3c(c2)[C@]2(COC(N)=N2)c2cc(-c4cccnc4)ccc2O3)CCO1 [compound 484],IC50,[1],< 0.1 µM
same,IC50,[2]; HEK cells,< 0.1 µM
"CCCOc1ccc2c(c1)[C@]1(COC(N)=N1)c1cc(-c3cncnc3)ccc1O2 [Example 5, (4S)-2′-propoxy-7′-(5-pyrimidinyl)spiro[1,3-oxazole-4,9′-xanthen]-2-amine]",IC50,[1]; Table 1,< 0.1 µM
same,IC50,"[2]; Table 1, Aβ40, 24 h incubation",< 0.1 µM
Cc1cncc(-c2ccc3c(c2)[C@@]2(COC(N)=N2)c2cc(OCC(C)(C)O)ccc2O3)c1 [compound 223],IC50,"[1]; Table III, IC50's in uM ranges",< 0.1 µM
same,IC50,"[2]; Table III, IC50's in uM ranges",< 0.1 µM
NC1=N[C@@]2(CO1)c1cc(-c3cccnc3)ccc1Oc1cnc(C3=CCCCC3)cc12 [compound 789],IC50,[1],< 0.1 µM
same,IC50,[2],< 0.1 µM
CC(C)C(C)(O)COc1ccc2c(c1)[C@]1(COC(N)=N1)c1cc(-c3cccnc3)ccc1O2 (some centres unmarked) [compound 867],IC50,"[1]; Table IV, class symbols",< 0.1 µM
same,IC50,"[2]; Table IV, class symbols",< 0.1 µM
CC(C)(C)COc1ccc2c(c1)[C@]1(COC(N)=N1)c1cc(CO)ccc1O2 [compound 828],IC50,"[1]; Table IV, class symbols",1 to 5 µM
same,IC50,"[2]; Table IV, class symbols",1 to 5 µM
"Cn1cc(-c2cc(F)c3c(c2)[C@]2(COC(N)=N2)c2cc(-c4cccnc4)ccc2O3)cn1 [compound 509, (4S)-4′-fluoro-2′-(1-methyl-1H-pyrazol-4-yl)-7′-(3-pyridinyl)spiro[1,3-oxazole-4,9′-xanthen]-2-amine]",IC50,[1],< 0.1 µM
same,IC50,[2]; HEK cells,< 0.1 µM
NC1=N[C@]2(CO1)c1cc(OCC(O)(C(F)(F)F)C(F)(F)F)ccc1Oc1ccc(-c3cccnc3)cc12 [compound 894],IC50,"[1]; Table IV, class symbols",< 0.1 µM
same,IC50,"[2]; Table IV, class symbols",0.1 to 1 µM
NC1=N[C@@]2(CO1)c1cc(-c3ccc4nccn4c3)ccc1Oc1ncccc12 [compound 572],IC50,"[1]; Table IV, class symbols",> 5 µM
same,IC50,"[2]; Table IV, class symbols",1 to 5 µM
"CC(C)(C)COc1ccc2c(c1)[C@]1(COC(N)=N1)c1cc(-c3cc(Cl)ccc3F)cnc1O2 [Example 91, (5R)-3-(5-chloro-2-fluorophenyl)-7-(2,2-dimethylpropoxy)spiro[chromeno[2,3-b]pyridine-5,4′-[1,3]oxazol]-2′-amine]",IC50,[1]; Table II,< 0.1 µM
same,IC50,[2]; [5],0.1 to 1 µM
NC1=N[C@@]2(CO1)c1cc(-c3cccnc3)ccc1Oc1cnc(N3CCC3)cc12 [compound 447],IC50,[1],< 0.1 µM
same,IC50,[2]; HEK cells,0.1 to 1 µM
CC(C)(C)OC(=O)/C=C/c1ccc2c(c1)[C@]1(COC(N)=N1)c1cc(-c3cccnc3)ccc1O2 [compound 995],IC50,[1],0.1 to 1 µM
same,IC50,[2],1 to 5 µM
Cc1cnc(F)c(-c2ccc3c(c2)[C@@]2(COC(N)=N2)c2cccnc2O3)c1 [compound 571],IC50,"[1]; Table IV, class symbols",0.1 to 1 µM
same,IC50,"[2]; Table IV, class symbols",0.1 to 1 µM
CC(C)(C)COc1ccc2c(c1)[C@]1(COC(N)=N1)c1cc(-c3cncnc3O)ccc1O2 [compound 884],IC50,"[1]; Table IV, class symbols",0.1 to 1 µM
same,IC50,"[2]; Table IV, class symbols",1 to 5 µM
NC1=N[C@@]2(CO1)c1cc(-c3cccnc3)ccc1Oc1cnc(CCC3CC3)cc12 [compound 695],IC50,[1],< 0.1 µM
same,IC50,[2],0.1 to 1 µM
"CCCc1ccc2c(c1)[C@@]1(COC(N)=N1)c1cc(-c3cncnc3)ccc1O2 [Example 53, (4S)-2′-propyl-7′-(5-pyrimidinyl)spiro[1,3-oxazole-4,9′-xanthen]-2-amine]",IC50,[1]; Table II,< 0.1 µM
same,IC50,[2]; [5],0.1 to 1 µM
NC1=N[C@]2(CO1)c1cc(/C=C/C(=O)O)ccc1Oc1ccc(-c3cccnc3)cc12 [compound 949],IC50,[1],< 0.1 µM
same,IC50,[2],> 5 µM
COC(C)(C)C#Cc1cnc2c(c1)[C@]1(COC(N)=N1)c1cc(-c3cccnc3)ccc1O2 [compound 603],IC50,"[1]; Table IV, class symbols",< 0.1 µM
same,IC50,"[2]; Table IV, class symbols",< 0.1 µM
CC(C)(C)COc1cnc2c(c1)[C@]1(COC(N)=N1)c1cc(-c3cccc(C#N)c3)ccc1O2 [compound 358],IC50,[1]; [3],< 0.1 µM
same,IC50,[2]; [4],< 0.1 µM
"NC1=N[C@]2(CO1)c1cc(OCC3CCOC3)ccc1Oc1ccc(-c3cncnc3)cc12 (stereo partly drawn) [Example 132, (S)-2′-(pyrimidin-5-yl)-7′-((tetrahydrofuran-3-yl)methoxy)-5H-spiro[oxazole-4,9′-xanthen]-2-amine]",IC50,"[1]; Table III, IC50's in uM ranges",1 to 5 µM
same,IC50,"[2]; Table III, IC50's in uM ranges",> 5 µM
NC1=N[C@@]2(CO1)c1cc(-c3cccnc3)ccc1Oc1c(F)cc(OCC3CCOCC3)cc12 [compound 418],IC50,[1]; [3],< 0.1 µM
same,IC50,[2]; [4],< 0.1 µM
CC(C)(C)/C=C/c1ccc2c(n1)[C@]1(COC(N)=N1)c1cc(-c3cccnc3)ccc1O2 [compound 398],IC50,[1]; [3],< 0.1 µM
same,IC50,[2]; [4],< 0.1 µM
CC(C)(F)COc1cnc2c(c1)[C@]1(COC(N)=N1)c1cc(-c3ccccc3)ccc1O2 [compound 452],IC50,[1],< 0.1 µM
same,IC50,[2]; HEK cells,0.1 to 1 µM
N#Cc1ccccc1Oc1ccc2c(c1)[C@]1(COC(N)=N1)c1cc(Br)ccc1O2 [compound 997],IC50,[1],> 5 µM
same,IC50,[2],> 5 µM
COc1ccc2c(c1)[C@]1(COC(N)=N1)c1cc(C#CC(C)(C)O)cnc1O2 [compound 903],IC50,"[1]; Table IV, class symbols",> 5 µM
same,IC50,"[2]; Table IV, class symbols",> 5 µM
"NC1=N[C@@]2(CS1)c1cc(Cl)ccc1Oc1ccc(-c3cncnc3)cc12 [Example 39, (4R)-2′-chloro-7′-(5-pyrimidinyl)spiro[1,3-thiazole-4,9′-xanthen]-2-amine]",IC50,[1]; Table II,0.1 to 1 µM
same,IC50,[2]; [5],> 5 µM
CCCNC(=O)c1ccc2c(c1)[C@@]1(COC(N)=N1)c1cc(OCC(C)(C)C)ccc1O2 [compound 657],IC50,"[1]; Table IV, class symbols",< 0.1 µM
same,IC50,"[2]; Table IV, class symbols",0.1 to 1 µM
"COc1ccc2c(c1)[C@@]1(COC(N)=N1)c1cc(C(=O)N3CCCC3)ccc1O2 [Example 127, (R)-(2-amino-2′-methoxy-5H-spiro[oxazole-4,9′-xanthene]-7′-yl)(pyrrolidin-1-yl)methanone]",IC50,"[1]; Table III, IC50's in uM ranges",> 5 µM
same,IC50,"[2]; Table III, IC50's in uM ranges",1 to 5 µM
C[C@H]1OC(N)=N[C@@]12c1cc(OCC(C)(C)C)ccc1Oc1ccc(-c3cncnc3)cc12 [126d],IC50,"[1]; Table III, IC50's in uM ranges",< 0.1 µM
same,IC50,"[2]; Table III, IC50's in uM ranges",< 0.1 µM
COC(C)(C)CCc1ccc2c(c1)[C@]1(COC(N)=N1)c1cc(-c3cccnc3)ccc1O2 [compound 1001],IC50,[1],< 0.1 µM
same,IC50,[2],< 0.1 µM
CC(C)(C)COc1ccc2c(c1)[C@@]1(COC(N)=N1)c1cc(-c3csc(C(F)F)c3)ccc1O2 [compound 783],IC50,[1],< 0.1 µM
same,IC50,[2],1 to 5 µM
COC(=O)c1ccc2c(c1)[C@@]1(COC(N)=N1)c1cc(OCC(C)(C)C)ccc1O2 [compound 875],IC50,"[1]; Table IV, class symbols",< 0.1 µM
same,IC50,"[2]; Table IV, class symbols",0.1 to 1 µM
NC1=N[C@]2(CO1)c1cc(-c3cncnc3)ccc1Oc1c(F)cccc12 [compound 552],IC50,"[1]; Table IV, class symbols",> 5 µM
same,IC50,"[2]; Table IV, class symbols",> 5 µM
NC1=N[C@@]2(CO1)c1cc(-c3cccnc3N3CCOCC3)ccc1Oc1cnc(Cl)cc12 [compound 337],IC50,[1]; [3],1 to 5 µM
same,IC50,[2]; [4],> 5 µM
CC(C)(C)C#Cc1cnc2c(c1)[C@@]1(COC(N)=N1)c1cc(Oc3ccccn3)ccc1O2 [compound 927],IC50,[1],0.1 to 1 µM
same,IC50,[2],1 to 5 µM
NC1=N[C@]2(CO1)c1ccccc1Oc1ccc(C(=O)NC3CCCCC3)cc12 [compound 621],IC50,"[1]; Table IV, class symbols",> 5 µM
same,IC50,"[2]; Table IV, class symbols",> 5 µM
CC(C)(O)COc1ccc2c(c1Br)[C@]1(COC(N)=N1)c1cc(-c3cccnc3)ccc1O2 [compound 944],IC50,[1],< 0.1 µM
same,IC50,[2],< 0.1 µM
CN1CCN(c2ccc3c(c2)[C@@]2(COC(N)=N2)c2cc(OCC(C)(C)C)ccc2O3)CC1 [compound 812],IC50,"[1]; Table IV, class symbols",1 to 5 µM
same,IC50,"[2]; Table IV, class symbols",0.1 to 1 µM
CC(=O)c1ccccc1-c1ccc2c(c1)[C@]1(COC(N)=N1)c1cc(OCC(C)(C)C)ccc1O2 [compound 190],IC50,"[1]; Table III, IC50's in uM ranges",0.1 to 1 µM
same,IC50,"[2]; Table III, IC50's in uM ranges",> 5 µM
COc1ccc2c(c1)[C@]1(COC(N)=N1)c1cc(NC(=O)C(F)(F)F)ccc1O2 [compound 651],IC50,"[1]; Table IV, class symbols",0.1 to 1 µM
same,IC50,"[2]; Table IV, class symbols",1 to 5 µM
CC1(C)C=C(c2cnc3c(c2)[C@]2(COC(N)=N2)c2cc(-c4cncnc4)ccc2O3)CCO1 [compound 478],IC50,[1],< 0.1 µM
same,IC50,[2]; HEK cells,< 0.1 µM
Cn1cc(-c2cc3c(cn2)Oc2ccc(-c4cccc(Cl)c4)cc2[C@@]32COC(N)=N2)cn1 [compound 329],IC50,[1]; [3],< 0.1 µM
same,IC50,[2]; [4],< 0.1 µM
"Cc1ccc2c(c1)Oc1ccc(Br)cc1C21COC(N)=N1 (centres unmarked) [Example 37, 2′-bromo-6′-methylspiro[1,3-oxazole-4,9′-xanthen]-2-amine]",IC50,[1]; Table 1,> 5 µM
same,IC50,"[2]; Table 1, Aβ40, 24 h incubation",> 5 µM
NC1=N[C@]2(CO1)c1cc(C#CCCO)ccc1Oc1ccc(-c3cccnc3)cc12 [compound 183],IC50,"[1]; Table III, IC50's in uM ranges",< 0.1 µM
same,IC50,"[2]; Table III, IC50's in uM ranges",< 0.1 µM
